Consider four molecules from patent US20220125885A1, “GLUCAGON ANALOG AGONISTS AND METHODS OF USING THE SAME” (Eli Lilly and Company, priority 2019, published 2022).

The target in data set [1] is T1, human GLP-1 receptor (hGLP-1R) (Homo sapiens, UniProt P43220).
T1 construct: expressed in transfected cells; host or cells: HEK-293 clonal cell line
Nature of the data set: cAMP functional activity assay, hGLP-1R HEK-293 cells. Type of data set: cell-based. The following applies: HEK293; percent of response to 10 nM GLP-1(7-36)NH2; mean ± SEM.

The target in data set [2] is T2, human GIP receptor (hGIP-R) (Homo sapiens, UniProt P48546).
T2 construct: expressed in transfected cells; host or cells: HEK-293 clonal cell line
T2 sequence (P48546 22-466): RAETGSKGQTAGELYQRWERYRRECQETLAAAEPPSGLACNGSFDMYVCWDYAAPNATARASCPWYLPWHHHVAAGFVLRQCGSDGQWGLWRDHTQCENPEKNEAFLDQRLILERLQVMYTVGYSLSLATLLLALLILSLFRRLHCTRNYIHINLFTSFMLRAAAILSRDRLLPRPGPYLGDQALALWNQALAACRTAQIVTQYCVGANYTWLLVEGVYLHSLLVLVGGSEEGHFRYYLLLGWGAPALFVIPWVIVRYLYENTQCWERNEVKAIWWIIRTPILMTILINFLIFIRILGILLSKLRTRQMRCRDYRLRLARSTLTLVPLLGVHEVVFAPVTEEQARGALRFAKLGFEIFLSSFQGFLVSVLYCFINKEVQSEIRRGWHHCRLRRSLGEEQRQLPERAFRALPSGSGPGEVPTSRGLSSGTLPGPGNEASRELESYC
Briefly: cAMP functional activity assay, hGIP-R HEK-293 cells. Format: cell-based. The following applies: for Emax at 9.95 µM: HEK293, percent of response to 10 nM GIP(1-42)NH2, Examples at 9.95 μM, read-out: Emax hGIPR; for EC50: in the presence of FBS and BSA, read-out: cAMP EC50 hGIPR. The protocol: (§1) After a sixty-minute incubation at room temperature, the resulting increase in intracellular cAMP is quantitatively determined using a cAMP Dynamic 2 HTRF Assay Kit (62AM4PEJ; CisBio; Codolet, FR). Briefly, cAMP levels within the cell are detected by adding a cAMP-d2 conjugate in cell lysis buffer (10 μl) followed by an anti-cAMP-Eu3+-Cryptate antibody, also in cell lysis buffer (10 μl). […] A relative EC50 value and percent top (Emax) are derived by non-linear regression analysis using the percent maximal response vs. the concentration of peptide added, fitted to a four-parameter logistic equation.

Data set [3] has as its target T3, hGCGR (Homo sapiens, UniProt P47871).
T3 construct: expressed in transfected cells; host or cells: HEK-293 clonal cell line
Nature of the data set: cAMP functional activity assay, hGCGR HEK-293 cells. Type of data set: cell-based. The following applies: HEK293; percent of response to 1 nM Glucagon; mean ± SEM. The protocol: as §1

Data set [4] in a line: in vivo. The following applies: male, Yucatan miniature swine, pig, sc, 10 ug/kg. On the procedure: 1. […] The compounds and an analog as an internal standard are extracted from […] by antibody or protein precipitations. The intact mass of the compounds are detected by a Q Exactive® Orbitrap® Mass Spectrometer (Thermo Fisher Scientific; Waltham, Mass.). 2. […] Blood is collected at pre-dose, 2, 5, 10, 15, 20, 25, 30, 45, 60, 75, 90, 120 and 150 minutes post-dose, and plasma is obtained for pharmacokinetic characterization. […] Blood is collected at pre-dose, 2, 5, 10, 15, 20, 25, 30, 45, 60, 75, 90, 120 and 150 minutes postdose, and plasma is obtained for pharmacokinetic characterization.

Data set [5] relates to CD8+ T cell-depleted peripheral blood mononuclear cells (CD4+ T cells). Nature of the data set: CD4+ T cell assay (immunogenicity). Format: cell-based, human. The settings on record: Cell Division Index; positive donors only. On the procedure:
1. CD4+ T Cell Assay: to assess the propensity for a clinical immunogenic response to the G compounds of Examples 1-4, CD8+ T cell-depleted peripheral blood mononuclear cells (PBMC's) are prepared and labeled with carboxyfluorescein diacetate succinimidyl ester (CFSE; Invitrogen) from a cohort of 10 healthy donors with diverse human leukocyte antigen (HLA) class II haplotypes. Each donor is tested in triplicate with 2.0 mL media control, keyhole limpet haemocyanin (KLH; 0.33 μM), and the compounds of Examples 1-4 (10 μM). Cultures are incubated for 7 days at 37° C. with 5% CO2. On day 7, samples are analyzed by flow cytometry using a BD LSR II Fortessa (Becton Dickinson; Franklin Lakes, N.J.), equipped with a high throughput sampler (HTS). Data is analyzed using FlowJo® Software (FlowJo, LLC/TreeStar; Ashland, Oreg.).
Protein therapeutics that induce less than 30% positive response in the CD4+ T cell proliferation assay are associated with a low risk of immunogenicity.

In data set [6] the target is T4, human GLP-2 receptor (human, UniProt O95838 1-553).
T4 sequence (looked up): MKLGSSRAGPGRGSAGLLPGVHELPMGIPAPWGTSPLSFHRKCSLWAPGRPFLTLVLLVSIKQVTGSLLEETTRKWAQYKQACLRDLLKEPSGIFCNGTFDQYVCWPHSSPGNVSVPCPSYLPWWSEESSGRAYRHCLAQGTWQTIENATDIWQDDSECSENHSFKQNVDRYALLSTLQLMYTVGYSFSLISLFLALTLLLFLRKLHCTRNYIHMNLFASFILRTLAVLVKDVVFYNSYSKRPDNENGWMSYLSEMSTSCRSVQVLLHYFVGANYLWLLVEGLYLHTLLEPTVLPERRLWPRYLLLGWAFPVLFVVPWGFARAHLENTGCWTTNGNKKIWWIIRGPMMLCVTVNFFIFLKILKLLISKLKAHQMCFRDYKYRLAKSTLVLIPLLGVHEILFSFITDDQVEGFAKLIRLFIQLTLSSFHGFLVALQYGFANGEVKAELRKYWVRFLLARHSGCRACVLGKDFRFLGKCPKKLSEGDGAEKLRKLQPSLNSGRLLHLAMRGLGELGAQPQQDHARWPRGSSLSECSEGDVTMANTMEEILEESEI
Nature of the data set: cell-based or functional assay.

Where a SMILES comes first, the peptide text is derived from it. Where no end group is shown, it is not given here. [ ]: non-standard residue; d: D form. 4Pal = N[C@@H](Cc1ccncc1)C(=O)O; Dab = NCC[C@H](N)C(=O)O; Aib = CC(C)(N)C(=O)O Where only a bound is given, the exact number is not on record here.

T1 sequence (P43220 24-463): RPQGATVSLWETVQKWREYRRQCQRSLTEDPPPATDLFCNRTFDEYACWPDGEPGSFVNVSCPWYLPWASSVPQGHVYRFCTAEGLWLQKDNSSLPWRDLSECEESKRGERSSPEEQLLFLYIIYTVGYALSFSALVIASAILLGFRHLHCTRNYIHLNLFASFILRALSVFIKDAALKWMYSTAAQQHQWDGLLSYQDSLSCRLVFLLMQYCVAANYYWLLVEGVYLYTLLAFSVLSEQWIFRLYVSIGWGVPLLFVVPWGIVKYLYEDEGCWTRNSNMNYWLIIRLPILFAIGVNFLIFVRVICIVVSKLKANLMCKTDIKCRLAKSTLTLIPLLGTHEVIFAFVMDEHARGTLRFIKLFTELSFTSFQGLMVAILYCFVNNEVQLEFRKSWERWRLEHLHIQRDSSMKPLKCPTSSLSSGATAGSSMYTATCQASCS
T3 sequence (P47871 26-477): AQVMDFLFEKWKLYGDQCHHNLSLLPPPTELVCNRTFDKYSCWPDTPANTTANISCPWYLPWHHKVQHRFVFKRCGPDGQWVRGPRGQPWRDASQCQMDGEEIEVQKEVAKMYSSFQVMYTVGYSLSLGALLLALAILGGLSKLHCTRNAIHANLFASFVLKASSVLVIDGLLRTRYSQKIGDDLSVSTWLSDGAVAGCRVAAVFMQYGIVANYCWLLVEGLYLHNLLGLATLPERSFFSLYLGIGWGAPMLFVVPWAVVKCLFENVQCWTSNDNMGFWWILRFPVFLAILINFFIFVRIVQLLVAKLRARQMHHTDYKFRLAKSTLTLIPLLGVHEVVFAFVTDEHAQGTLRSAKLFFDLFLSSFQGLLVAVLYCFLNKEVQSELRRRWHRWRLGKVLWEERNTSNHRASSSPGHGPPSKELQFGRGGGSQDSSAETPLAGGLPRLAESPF

Molecule `CC(C)C[C@H](NC(=O)[C@H](Cc1ccncc1)NC(=O)[C@H](CCCCN)NC(=O)[C@@H](NC(=O)[C@H](Cc1ccccc1)NC(=O)[C@H](CCC(N)=O)NC(=O)[C@H](CCC(N)=O)NC(=O)[C@H](C)NC(=O)[C@H](CCCNC(=N)N)NC(=O)[C@H](CCCNC(=N)N)NC(=O)C(C)(C)NC(=O)[C@H](CC(=O)O)NC(=O)[C@H](CC(C)C)NC(=O)[C@H](Cc1ccc(O)cc1)NC(=O)[C@H](CCCCN)NC(=O)[C@H](CO)NC(=O)[C@H](Cc1ccc(O)cc1)NC(=O)[C@H](CC(=O)O)NC(=O)[C@H](CO)NC(=O)[C@@H](NC(=O)[C@H](Cc1ccccc1)NC(=O)[C@@H](NC(=O)CNC(=O)[C@H](CCC(N)=O)NC(=O)[C@H](CO)NC(=O)[C@@H](N)Cc1c[nH]cn1)[C@@H](C)O)[C@@H](C)O)C(C)C)C(=O)N[C@@H](CC(C)C)C(=O)N[C@@H](CO)C(=O)N[C@H](C(=O)O)[C@@H](C)O` [Example 1] (H-HSQGTFTSDYSKYLD[Aib]RRAQQFVK[4Pal]LLST-OH; N-terminus assumed) showed a maximal effect (Emax) in data set [1] of 105 ± 2%. Besides, in data set [2], the Emax at 9.95 µM is less than 5% and the concentration for a half-maximal effect (EC50) was greater than 9.95 µM. The same molecule returned an Emax in data set [3] of 103 ± 2%. In data set [4], the time to peak (Tmax) is 20 min.
In the case of `CC(=O)NCC[C@H](NC(=O)[C@H](CO)NC(=O)[C@@H](N)Cc1c[nH]cn1)C(=O)NCC(=O)N[C@H](C(=O)N[C@@H](Cc1ccccc1)C(=O)N[C@H](C(=O)N[C@@H](CO)C(=O)N[C@@H](CC(=O)O)C(=O)N[C@@H](Cc1ccc(O)cc1)C(=O)N[C@@H](CO)C(=O)N[C@@H](CCCCN)C(=O)N[C@@H](Cc1ccc(O)cc1)C(=O)N[C@@H](CC(C)C)C(=O)N[C@@H](CC(=O)O)C(=O)NC(C)(C)C(=O)N[C@@H](CCCNC(=N)N)C(=O)N[C@@H](CCCNC(=N)N)C(=O)N[C@@H](C)C(=O)N[C@@H](CCC(N)=O)C(=O)N[C@@H](C)C(=O)N[C@@H](Cc1ccccc1)C(=O)N[C@H](C(=O)N[C@@H](CCCCN)C(=O)N[C@@H](Cc1ccncc1)C(=O)N[C@@H](CC(C)C)C(=O)N[C@@H](CC(C)C)C(=O)N[C@@H](CO)C(=O)N[C@H](C(=O)O)[C@@H](C)O)C(C)C)[C@@H](C)O)[C@@H](C)O` [Example 3], the “Median Response Strength in positive donors (CDI)” value in data set [5] worked out at 6.5. In data set [1], this molecule showed a maximum response (Emax) of 109 ± 5%. In addition, in data set [2], the Emax at 9.95 µM is less than 5% and the half-maximal effective concentration (EC50) is greater than 9.95 µM. Besides, the Cmax in data set [4] (Cmax) was 1.8 ng/mL. The half-life in data set [4] (T1/2) amounted to 26.8 min.
Regarding `CC(=O)NCC[C@H](NC(=O)[C@H](CO)NC(=O)[C@@H](N)Cc1c[nH]cn1)C(=O)NCC(=O)N[C@H](C(=O)N[C@@H](Cc1ccccc1)C(=O)N[C@H](C(=O)N[C@@H](CO)C(=O)N[C@@H](CC(=O)O)C(=O)N[C@@H](Cc1ccc(O)cc1)C(=O)N[C@@H](CO)C(=O)N[C@@H](CCCCN)C(=O)N[C@@H](Cc1ccc(O)cc1)C(=O)N[C@@H](CC(C)C)C(=O)N[C@@H](CC(=O)O)C(=O)NC(C)(C)C(=O)N[C@@H](CCCNC(=N)N)C(=O)N[C@@H](CCCNC(=N)N)C(=O)N[C@@H](C)C(=O)N[C@@H](CCC(N)=O)C(=O)N[C@@H](CCC(N)=O)C(=O)N[C@@H](Cc1ccccc1)C(=O)N[C@H](C(=O)N[C@@H](CCCCN)C(=O)N[C@@H](Cc1ccncc1)C(=O)N[C@@H](CC(C)C)C(=O)N[C@@H](CC(C)C)C(=O)N[C@@H](CO)C(=O)N[C@H](C(=O)O)[C@@H](C)O)C(C)C)[C@@H](C)O)[C@@H](C)O` [Example 4] (H-HS[Dab](Ac)GTFTSDYSKYLD[Aib]RRAQQFVK[4Pal]LLST-OH; N-terminus assumed), the “Median Response Strength in positive donors (CDI)” value in data set [5] is listed as 6.42. The Emax in data set [1] was 100 ± 5%. For the same molecule, in data set [2], the Emax at 9.95 µM is less than 5% and the 50% effective concentration (EC50) was greater than 9.95 µM. Further, in data set [3], the Emax amounted to 98 ± 2%. Besides, the time to peak (Tmax) in data set [4] is 25 min.

B1: GLP-2 (1-34) acid (peptide)
peptide: HADGSFSDEMNTILDNLAARDFINWLIQTKITDR-OH
As for B1, the “cAMP EC50” value in data set [6] amounted to 0.016 nM.

By Emax is commonly meant the size of the effect at its maximum, as opposed to the concentration needed. The EC50 is the concentration needed to bring the measured effect to its halfway point. Broadly, the Tmax is the time from dosing to the highest level. As a reminder, the Cmax is the peak of the concentration-time curve. What is called half-life is the time in which the quantity being followed falls by half.
